The values that follow come from US9988600B2, “Cell culture media” (MERCK PATENT GMBH, priority 2013, dated 2018).

A short description of this data set: Effect of polymer embedding on components of DMEM F12 medium (embedded vs non-embedded form).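 Further: qualitative label per medium component: Hygros denotes lower hygroscopicity of the embedded form versus the free form, NA denotes not applicable.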 The class given is physicochemical. As to conditions: component of DMEM F12 medium embedded in polymer, compared to the non-embedded form.

Counter-ions that a name gives are not always drawn.

Source text: For all components the effect of polymer embedding is shown.
In Table 1, “Hygros” means that if the component is embedded according to the present invention and used in the media composition in its embedded form, the ability of said substance to attract and hold water molecules from the surrounding environment is reduced compared to the non-embedded form.

As for `O=C(O)CCCCC1CCSS1` (racemic) [DL-alpha-lipoic acid], the embedding effect result was “Oxid”.

Regarding `O=C(O)CCCC[C@@H]1SC[C@@H]2NC(=O)N[C@@H]21` [Biotin], the embedding effect entry was “Stab”. On to `C[N+](C)(C)CCO.[Cl-]` [Choline chloride], for which the embedding effect result is reported as “Hygros”. For `O.O.O.O.O.O=S(=O)([O-])[O-].[Cu+2]` [Copper sulfate 5H2O], the embedding effect result is “Solu”. As to `O.O.O.O.O.O.O.O.O.O=[N+]([O-])[O-].O=[N+]([O-])[O-].O=[N+]([O-])[O-].[Fe+3]` [Ferric nitrate 9H2O], the embedding effect result was “Solu”. The entry for `O.O.O.O.O.O.O.O=S(=O)([O-])[O-].[Fe+2]` [Ferrous sulfate 7H2O] is “Solu”; for `Nc1nc2ncc(CNc3ccc(C(=O)N[C@@H](CCC(=O)O)C(=O)O)cc3)nc2c(=O)[nH]1` [Folic acid] it is “Stab”; for `C[C@H](N)C(=O)O` [L-Alanine] it is “Solu”. As for `NC(=O)C[C@H](N)C(=O)O.O` [L-Asparagine H2O], the embedding effect entry is listed as “Solu”. With `Cl.N[C@@H](CS)C(=O)O.O` [L-Cysteine hydrochloride H2O], the embedding effect result is given as “Solu”. On to `Cl.Cl.N[C@@H](CSSC[C@H](N)C(=O)O)C(=O)O` [L-Cystine 2HCl (mikronisiert), L-Cystine 2HCl (mikronisiert) aus 200635], for which the embedding effect result is “Solu”. For `NC(=O)CC[C@H](N)C(=O)O` [L-Glutamine], the embedding effect result is recorded as “Stab”.

Take `Cl.N[C@@H](Cc1cnc[nH]1)C(=O)O.O` [L-Histidine HCl H2O]: the embedding effect entry is reported as “Solu”.

Turning to `CC[C@H](C)[C@H](N)C(=O)O` [L-Isoleucine], the embedding effect result is given as “Solu”. The entry for `CC(C)C[C@H](N)C(=O)O` [L-Leucine] is “Solu”; for `Cl.NCCCC[C@H](N)C(=O)O` [L-Lysine hydrochloride] it is “Solu”; for `CSCC[C@H](N)C(=O)O` [L-Methionine] it is “Solu”.

With `N[C@@H](Cc1ccccc1)C(=O)O` [L-Phenylalanine], the embedding effect result is “Solu”. With `N[C@@H](CO)C(=O)O` [L-Serine] the entry was “Solu”; with `C[C@@H](O)[C@H](N)C(=O)O` [L-Threonine], “Solu”; with `N[C@@H](Cc1c[nH]c2ccccc12)C(=O)O` [L-Thryptophan], “Solu”. For `N[C@@H](Cc1ccc([O-])cc1)C(=O)[O-].O.O.[Na+].[Na+]` [L-Tyrosine 2Na], the embedding effect result was “Solu”. In the case of `CC(C)[C@H](N)C(=O)O` [L-Valine], the embedding effect entry is given as “Solu”.

Take `CCCCC/C=C\C/C=C\CCCCCCCC(=O)O` [Linoleic acid]: the embedding effect result is on record as “Oxid”.

For `NC(=O)c1cccnc1` [Niacinamide], the embedding effect entry is on record as “Stab”. As for `Cl.Cl.NCCCCN` [Putrescine 2HCl], the embedding effect result was “Stab”. With `Cc1ncc(CO)c(CO)c1O.Cl` [Pyridoxine HCl] the entry was “Stab”; with `Cc1cc2nc3c(=O)[nH]c(=O)nc-3n(C[C@H](O)[C@H](O)[C@H](O)CO)c2cc1C` [Riboflavin], “Stab”. Consider `CC(=O)C(=O)[O-].[Na+]` [Sodium pyruvate], for which the embedding effect entry is on record as “Stab”.

For `Cc1ncc(C[n+]2csc(CCO)c2C)c(N)n1` [Thiamine HCl], the embedding effect entry was “Stab”. Regarding `O.O.O.O.O.O.O.O=S(=O)([O-])[O-].[Zn+2]` [Zinc sulafte 7H2O], the embedding effect entry is “Solu”.

With Vitamin B12, the embedding effect entry is given as “Solu”.
